Patent publication US20090118470A1 (priority 2005, published 2009)
Read-outs that look alike come from different tables or passages of the source.

Experiments:
prions [1] = conditions: cited from earlier work; for effect on prions: alcohols alone
[2] = tested on: 263K strain of scrapie agent; assay type: in vivo, Syrian gold hamsters; conditions: for inactivation factor: at 80° C.; for Mean incubation period ± SE: diseased animals only; for No. infected/No. injected: intracerebral inoculation
prions [3] = conditions: cited from earlier work

CCCO [1-propanol]
effect on prions (prions [1]): do not have an effect on prions

CC(C)O [2-propanol]
effect on prions (prions [1]): do not have an effect on prions

O [100% water, water]
inactivation factor [2]: about 10
Infectivity titre ± SE ([2]; heat treatment 80° C./20 min.): 7.2 ± 0.7 log ID50 per sample
Mean incubation period ± SE ([2]; heat treatment 80° C./20 min.): 78 ± 4 days
No. infected/No. injected ([2]; heat treatment 80° C./20 min.): 5/5
Infectivity titre ± SE ([2]; heat treatment 90° C./20 min.): 6.2 ± 0.2 log ID50 per sample
Mean incubation period ± SE ([2]; heat treatment 90° C./20 min.): 85 ± 1 days
No. infected/No. injected ([2]; heat treatment 90° C./20 min.): 5/5
Infectivity titre ± SE ([2]; heat treatment 100° C./20 min.): 5.0 ± 0.1 log ID50 per sample
Mean incubation period ± SE ([2]; heat treatment 100° C./20 min.): 97 ± 1 days
No. infected/No. injected ([2]; heat treatment 100° C./20 min.): 5/5

CCCCCCCCCCCCOS(=O)(=O)[O-].[Na+] [SDS, Sodium dodecylsulfate]
residual infectivity after treatment (prions [1]; heated in SDS solution (3% or greater; 0.10 M) for at least ten minutes, without autoclaving): Some residual infectivity remains

CCO [ethanol]
effect on prions (prions [1]): do not have an effect on prions

OCC(O)CO [glycerol]
inactivation factor [2]: < 10

Cl.N=C(N)N [guanidinium hydrochloride]
conversion of prions into an irregular coiled structure (prions [3]; 6 N guanidinium hydrochloride (573 g/l)): complete conversion

NC(N)=O [urea]
conversion of prions into an irregular coiled structure (prions [3]; 8 N urea (480 g/l)): complete conversion

guanidinium isothiocyanate
prion inactivation (prions [1]; concentration of 3 M, immersion times longer than 1 hour): inactivates prions
illness of experimental animals after intracerebral inoculation (prions [1]; concentration of 4 M, at least 15 minutes residence time): no experimental animal in various experiments is reported to become ill
denaturing effect (prions [3]; 1.5 N solution (177 g/l)): partially denaturing effect
